Residues, ends and D or L forms follow the SMILES beside them. No end group written: not given here. *: point of attachment. X1 = NC(=O)C[C@H](N=C[C@H](O)[C@@H](O)[C@@H](O)[C@H](O)CO)C(=O)*; X2 = NC(=O)C[C@H](N=C[C@H](O)[C@@H](O)[C@H](O)[C@H](O)CO)C(=O)*

The values below come from article PMC11054459 (Molecules, 2024).

In series [1] the target is hPD-1/hPD-L1 interaction (CHO-K1-hPD-1 cells, hPD-L1 protein) (Homo sapiens, UniProt Q9NZQ7). The series can be described thus: Peptide blocking assay (flow cytometry). In kind it is cell-based. The following applies: CHO-K1-hPD-1 cells 3 × 10^5 per sample, 50 ng hPD-L1, peptide + protein 30 min, + cells 30 min, on ice, 200 μM to 1.6 μM, means ± SEMs from three independent biological triplicates, read-out: IC50, blocking of PD-1/PD-L1 interaction. On the procedure: The interaction between PD-1 and PD-L1 plays a pivotal role in suppressing T-cell function, and disrupting this interaction has emerged as a viable therapeutic strategy in cancer treatment. Thus, we investigated the inhibitory potential of D-glu-^LPPA-1 and D-gal-^LPPA-1 on the PD-1/PD-L1 interaction. To conduct the experiment, CHO-K1-hPD-1 cells were harvested at a density of 3 × 10^5 cells per sample. Peptides were solubilized to a concentration of 200 μM and serially diluted before coincubation with 50 ng of the hPD-L1 protein for 30 min. The protein–peptide mixture was introduced into CHO-K1-hPD-1 cells, which were then coincubated for an additional 30 min. The anti-Fc PE antibody was then added and incubated for 30 min. Flow cytometry was used to evaluate the efficacy of the peptides in blocking the hPD-1/hPD-L1 interaction.
Sequence of hPD-1/hPD-L1 interaction (CHO-K1-hPD-1 cells, hPD-L1 protein) (Q9NZQ7 19-238 limits assumed): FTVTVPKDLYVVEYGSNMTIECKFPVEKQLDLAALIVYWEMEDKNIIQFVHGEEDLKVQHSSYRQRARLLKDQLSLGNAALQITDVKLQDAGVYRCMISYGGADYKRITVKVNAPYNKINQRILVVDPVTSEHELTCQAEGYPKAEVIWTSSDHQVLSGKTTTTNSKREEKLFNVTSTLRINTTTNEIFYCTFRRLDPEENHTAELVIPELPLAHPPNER
For subsequent multi-concentration blocking assays, peptides were prepared in concentration gradients spanning 200 μM, 100 μM, 50 μM, 25 μM, 12.5 μM, and 6.25 μM. Peptides at different concentrations were incubated with hPD-L1 (mPD-L1) protein (50 ng) on ice for 30 min. Subsequently, the mixture was added to CHO-K1-hPD-1 or CHO-K1-mPD-1 cells and coincubated on ice for 30 min. […] The ability of the peptide to block the PD-1/PD-L1 interaction was assessed using flow cytometry.
In general terms: Flow cytometry measures light scatter and fluorescence of single cells or particles in a stream.

Series [2] has as its target mouse PD-L1 (mPD-L1) (Mus musculus, UniProt Q9EP73). As to the kind of experiment: MST binding assay, mPD-L1. The following applies: microscale thermophoresis (MST); mPD-L1-His 800 nM, RED-NHS dye, PBST; peptide 400 μM to 0.012 μM; triplicate, mean ± SEM; read-out: dissociation constant (KD), mPD-L1. As to the method:
The concentrations of hPD-L1-His and mPD-L1-His proteins were adjusted to 200 nM and 800 nM, respectively, utilizing PBST as the diluent. Simultaneously, the concentration of RED-NHS676 dye was diluted to 100 nM in PBST. Subsequently, protein and dye were subjected to co-incubation at a volumetric ratio of 1:1 for a duration of 30 min, thereby facilitating the generation of labeled proteins. To establish peptide gradients, a progressive dilution was initiated from an initial concentration of 400 μM, eventually reaching 0.012 μM. Following this preparation, a homogenous amalgamation comprising 5 μL of labeled protein and 5 μL of small molecule diluent was extracted for further experimentation. Subsequently, the samples were transferred to standard capillary tubes and analyzed by an MST instrument (Nano Temper, Monolith NT.115, München, Germany).

The nature of series [3]: Body weight of MC38 tumor-bearing mice. In kind it is in vivo, mouse. The following applies: 1 and 3 mg/kg i.p. once daily for two weeks. As to the method: Animal experiments were approved by the Zhengzhou University Ethics Committee. MC38 cells (1 × 10^6) were subcutaneously inoculated into C57BL/N mice. The MC38 tumor-bearing mice were randomly allocated to three groupsn (n = 5 per group): a control group (NS, normal saline containing 1% DMSO); a D-gal-^LPPA-1 peptide group (1 mg/kg); and a D-gal-^LPPA-1 peptide group (3 mg/kg). Daily intraperitoneal injections of the peptide were initiated when the tumor volume reached 50–90 mm^3. The tumor dimensions, including length, width, and height, were measured, and tumor volume was calculated using the following formula:V = 1/2 × A (length) × B (width) × C (height).

Series [4] deals with heart, liver, spleen, lung, kidney of MC38 tumor-bearing mice. As to the kind of experiment: H&E staining of major organs. The class given is in vivo, mouse. The following applies: 1 and 3 mg/kg i.p., vs. normal saline control. As to the method: Tumor tissue and heart, liver, spleen, lung, and kidney tissues were isolated from MC38 tumor-bearing mice and fixed in 4.0% paraformaldehyde. The samples were subsequently embedded in paraffin and subjected to hematoxylin and eosin staining. The results were analyzed using ImageJ1 software (NIH, Bethesda, MD, USA).

For series [5], the target named is T1, hPD-L1-Fc (human, UniProt Q9NZQ7 19-238).
T1 construct: human PD-L1 (hPD-L1), recombinant protein fused to Fc; also called hPD-L1 protein
T1 sequence (Q9NZQ7 19-238): as the sequence (Q9NZQ7 19-238 limits assumed) above
The series can be described thus: flow cytometry on cells; blocking assay: peptide in serial dilution from 200 μM pre-incubated with 50 ng hPD-L1-Fc on ice for 30 min, mixture added to CHO-K1-hPD-1 cells (3 x 10^5 per sample) for 30 min, detected with anti-Fc PE antibody. The following applies: both partners purified.

In series [6] the target is mPD-L1-His (mouse, UniProt Q9EP73 19-290, labelled with RED-NHS676 dye). The series can be described thus: MST; His-tagged PD-L1 (hPD-L1 200 nM, mPD-L1 800 nM) labelled 1:1 with 100 nM RED-NHS676 dye in PBST for 30 min; peptide diluted from 400 μM to 0.012 μM; standard capillaries, Monolith NT.115. The following applies: both partners purified.
Sequence of mPD-L1-His (Q9EP73 19-290): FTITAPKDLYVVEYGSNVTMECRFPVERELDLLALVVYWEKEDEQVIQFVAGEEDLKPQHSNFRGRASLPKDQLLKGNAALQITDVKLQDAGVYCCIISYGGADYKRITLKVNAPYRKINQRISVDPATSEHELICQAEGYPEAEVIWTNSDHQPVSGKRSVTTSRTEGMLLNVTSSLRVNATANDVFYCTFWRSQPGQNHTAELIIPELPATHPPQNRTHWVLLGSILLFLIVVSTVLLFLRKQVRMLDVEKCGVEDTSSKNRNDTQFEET
Series [7] concerns the target hPD-L1-His (human, UniProt Q9NZQ7 19-290, labelled with RED-NHS676 dye). The description is as above. The following applies: both partners purified.

Sequence of mouse PD-L1 (mPD-L1) (Q9EP73 19-290): as above
Sequence of hPD-L1-His (Q9NZQ7 19-290): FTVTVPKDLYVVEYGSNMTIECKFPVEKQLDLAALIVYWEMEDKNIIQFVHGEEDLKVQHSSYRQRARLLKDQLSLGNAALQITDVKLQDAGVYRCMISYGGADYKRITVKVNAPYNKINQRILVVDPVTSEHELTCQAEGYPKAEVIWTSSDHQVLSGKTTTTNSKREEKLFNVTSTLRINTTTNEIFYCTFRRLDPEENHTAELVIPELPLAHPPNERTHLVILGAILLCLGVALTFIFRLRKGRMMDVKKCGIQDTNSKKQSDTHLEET

Take `C[C@@H](O)[C@H](NC(=O)[C@@H]1CCCN1C(=O)[C@H](CCCCN)NC(=O)[C@H](CO)NC(=O)[C@H](Cc1ccc(O)cc1)NC(=O)[C@H](CC(N)=O)N=C[C@H](O)[C@@H](O)[C@H](O)[C@H](O)CO)C(=O)N[C@@H](CC(=O)O)C(=O)N[C@@H](CCCNC(=N)N)C(=O)N[C@@H](CCC(N)=O)C(=O)N[C@@H](Cc1ccc(O)cc1)C(=O)N[C@@H](Cc1c[nH]cn1)C(=O)N[C@@H](Cc1ccccc1)C(=O)O` [D-glu-^LPPA-1] (X2-YSKPTDRQYHF-OH): the IC50 in series [1] amounted to 75.5 ± 20.3 µM.

As for `C[C@@H](O)[C@H](NC(=O)[C@@H]1CCCN1C(=O)[C@H](CCCCN)NC(=O)[C@H](CO)NC(=O)[C@H](Cc1ccc(O)cc1)NC(=O)[C@H](CC(N)=O)N=C[C@H](O)[C@@H](O)[C@@H](O)[C@H](O)CO)C(=O)N[C@@H](CC(=O)O)C(=O)N[C@@H](CCCNC(=N)N)C(=O)N[C@@H](CCC(N)=O)C(=O)N[C@@H](Cc1ccc(O)cc1)C(=O)N[C@@H](Cc1c[nH]cn1)C(=O)N[C@@H](Cc1ccccc1)C(=O)O` [D-gal-^LPPA-1] (X1-YSKPTDRQYHF-OH), the Kd in series [2] was found to be 0.015 ± 0.006 µM. The body weight result in series [3] is on record as “no significant changes in body weight”. In addition, the “organ toxicity (H&E staining)” value in series [4] was “no apparent toxicity observed”.

B1: D-gal-^LPPA-1 (peptide)
peptide: N(D‑galactose)YSKPTDRQYHF
notes: L-type peptide ^LPPA-1, L-amino-acid analogue of the PD-L1-targeting D-peptide ^DPPA-1; printed in three-letter code; source: synthetic peptide (Fmoc solid-phase synthesis, purified by reverse-phase HPLC)
As to B1, in series [5], the IC50 was 101 µM. For the same molecule, the figures for the Kd in series [6] and in series [7] were 0.0149 µM and 0.047 µM, respectively.

B2: D-glu-^LPPA-1 (peptide)
peptide: N(D‑glucose)YSKPTDRQYHF
notes: as for B1
Consider B2, for which the IC50 in series [5] worked out at 75 µM.

The term Kd denotes the free concentration of one partner at which half of the binding sites on the other are occupied at equilibrium, for simple one-to-one binding.
